Patent US20080009418A1, “Selective Inhibitors” (Alchemia LTD., priority 2004, published 2008)

What was measured:
[1] = target: T1, Human Melanocortin (MC3) (Homo sapiens, UniProt P41968); experiment: Radioligand binding, human melanocortin MC3 membranes, FlashPlate, [125I]-NDP-αMSH; details: compound at 10 μM, [125I]-NDP-αMSH
T1 construct: purchased Perkin Elmer Biosignal
Outline: (§1)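 Cloned human receptor membranes were coated onto FlashPlate wells and incubated with radioligand and compound (added from a 0.5 mM DMSO daughter plate) for 1 hour at room temperature in the dark. Scintillation counting gave percent inhibition, with DMSO defining total and reference ligand defining non-specific binding.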

[2] = target: T2, Human neuropeptide Y (NPY-Y1) (Homo sapiens, UniProt P25929); experiment: Radioligand binding, human neuropeptide Y NPY-Y1 membranes, FlashPlate, [125I]-PYY; details: compound at 10 μM, [125I]-PYY
T2 construct: purchased Perkin Elmer Biosignal
T2 sequence (P25929 1-384): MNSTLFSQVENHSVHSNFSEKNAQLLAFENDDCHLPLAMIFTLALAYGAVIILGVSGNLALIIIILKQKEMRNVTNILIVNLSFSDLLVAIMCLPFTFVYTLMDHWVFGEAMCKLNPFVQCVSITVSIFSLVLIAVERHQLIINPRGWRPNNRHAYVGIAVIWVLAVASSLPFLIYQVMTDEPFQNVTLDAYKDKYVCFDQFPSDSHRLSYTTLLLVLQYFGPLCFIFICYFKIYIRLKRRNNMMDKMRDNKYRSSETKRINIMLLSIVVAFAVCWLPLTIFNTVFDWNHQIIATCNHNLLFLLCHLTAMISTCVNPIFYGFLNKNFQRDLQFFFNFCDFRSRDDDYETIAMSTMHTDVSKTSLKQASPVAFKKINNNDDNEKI
Outline: as §1

[3] = target: T3, Human δ-opioid (DOP) (Homo sapiens, UniProt P41143); experiment: Radioligand binding, human δ-opioid (DOP) membranes, FlashPlate, [3H]-Bremazocine; details: compound at 10 μM, [3H]-Bremazocine
T3 construct: purchased Perkin Elmer Biosignal
Outline: as §1

[4] = target: T4, Human neurokinin (NK1) (Homo sapiens, UniProt P25103); experiment: Radioligand binding, human neurokinin NK1 membranes, filtration, [125I]-Substance P; details: compound at 10 μM, [125I]-Substance P
T4 construct: purchased Perkin Elmer Biosignal
Outline: (§2)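 Membranes from cloned human receptors were incubated with compound and radioligand for 1 hour at room temperature. Bound ligand was collected on 0.3% PEI-soaked filters, washed with cold 50 mM Tris-HCl pH 7.4, and counted by scintillation. Percent inhibition was computed against DMSO totals and reference-ligand nonspecific wells.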

[5] = target: T5, Human opioid (ORL1) (Homo sapiens, UniProt P41146); experiment: Radioligand binding, human opioid ORL1 membranes, FlashPlate, [125I]-Nociceptin; details: compound at 10 μM, [125I]-Nociceptin
T5 construct: purchased Perkin Elmer Biosignal
Outline: as §1

[6] = target: T6, Human melanocortin (MC5) (Homo sapiens, UniProt P33032); experiment: Radioligand binding, human melanocortin MC5 membranes, FlashPlate, [125I]-NDP-αMSH; details: compound at 10 μM, [125I]-NDP-αMSH
T6 construct: purchased Perkin Elmer Biosignal
Outline: as §1

[7] = target: T7, Human μ-opioid (MOP) (Homo sapiens, UniProt P35372); experiment: Radioligand binding, human μ-opioid (MOP) membranes, FlashPlate, [3H]-Naloxone; details: compound at 10 μM, [3H]-Naloxone
T7 construct: purchased Perkin Elmer Biosignal
Outline: as §1

[8] = target: T8, Human melanin-concentrating hormone (MCH1) (Homo sapiens, UniProt Q99705); experiment: Radioligand binding, human melanin-concentrating hormone MCH1 membranes, FlashPlate, [125I]-S36057; details: compound at 10 μM
T8 construct: purchased Perkin Elmer Biosignal
Outline: as §1

[9] = target: T9, Mouse urotensin (mUR2) (Mus musculus, UniProt Q8VIH9); experiment: Radioligand binding, mouse urotensin mUR2 membranes, FlashPlate, [125I]-Urotensin II; details: compound at 10 μM, [125I]-Urotensin II
T9 construct: purchased Perkin Elmer Biosignal
T9 sequence (Q8VIH9 1-385): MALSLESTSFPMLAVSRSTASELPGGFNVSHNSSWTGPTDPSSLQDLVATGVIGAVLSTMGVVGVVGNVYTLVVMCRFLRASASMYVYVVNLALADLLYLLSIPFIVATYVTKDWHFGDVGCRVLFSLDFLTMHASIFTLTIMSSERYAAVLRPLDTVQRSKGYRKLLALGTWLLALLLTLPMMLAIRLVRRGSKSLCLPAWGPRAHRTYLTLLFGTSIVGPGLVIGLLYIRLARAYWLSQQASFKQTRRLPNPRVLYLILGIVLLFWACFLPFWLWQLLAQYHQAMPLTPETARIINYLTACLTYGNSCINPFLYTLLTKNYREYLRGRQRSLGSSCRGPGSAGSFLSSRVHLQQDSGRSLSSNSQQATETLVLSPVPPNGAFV
Outline: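 Cloned mouse urotensin (mUR2) receptor membranes from Perkin Elmer Biosignal were immobilized in FlashPlate microplates using a proprietary coating. Each well got 19.5 μl buffer, then 0.5 μl of DMSO, reference ligand, or compound. Adding 5 μl of [125I]-Urotensin II, diluted to 5× final concentration in binding buffer, started binding. Plates were sealed with TopSeal-A and incubated 1 hour at room temperature in the dark. Wells were counted for 30 seconds each on a TopCount after a 60-second delay, and percentage inhibition was calculated.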

[10] = target: T10, Human Melanocortin (MC4) (Homo sapiens, UniProt P32245); experiment: Radioligand binding, human melanocortin MC4 membranes, FlashPlate, [125I]-NDP-αMSH; details: compound at 10 μM, [125I]-NDP-αMSH
T10 construct: purchased Perkin Elmer Biosignal
Outline: as §1

[11] = target: T11, Human κ-Opioid (KOP) (Homo sapiens, UniProt P41145); experiment: Radioligand binding, human κ-opioid (KOP) membranes, filtration, [3H]-Diprenorphine; details: compound at 10 μM, [3H]-Diprenorphine
T11 construct: purchased Perkin Elmer Biosignal
Outline: as §2

T4 sequence (P25103 whole entry): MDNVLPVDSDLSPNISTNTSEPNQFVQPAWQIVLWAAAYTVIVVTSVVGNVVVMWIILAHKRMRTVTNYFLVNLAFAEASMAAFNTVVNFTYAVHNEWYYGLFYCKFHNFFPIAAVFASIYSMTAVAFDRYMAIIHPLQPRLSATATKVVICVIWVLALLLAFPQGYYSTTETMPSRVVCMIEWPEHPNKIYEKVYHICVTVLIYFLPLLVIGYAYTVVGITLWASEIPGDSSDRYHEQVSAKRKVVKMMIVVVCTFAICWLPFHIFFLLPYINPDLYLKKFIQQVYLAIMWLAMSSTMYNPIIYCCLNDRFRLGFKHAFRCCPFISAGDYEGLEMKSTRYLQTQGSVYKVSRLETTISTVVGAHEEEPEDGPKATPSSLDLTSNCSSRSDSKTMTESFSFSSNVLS
T10 sequence (P32245 whole entry): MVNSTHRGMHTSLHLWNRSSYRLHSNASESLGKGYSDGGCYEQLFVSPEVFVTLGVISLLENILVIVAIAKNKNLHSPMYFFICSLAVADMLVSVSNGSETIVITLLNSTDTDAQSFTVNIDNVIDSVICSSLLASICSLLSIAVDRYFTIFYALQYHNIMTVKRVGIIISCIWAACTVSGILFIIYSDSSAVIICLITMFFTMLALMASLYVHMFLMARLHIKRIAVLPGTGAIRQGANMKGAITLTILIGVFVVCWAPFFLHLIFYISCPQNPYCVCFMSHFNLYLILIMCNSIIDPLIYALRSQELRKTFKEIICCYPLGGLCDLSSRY
T6 sequence (P33032 whole entry): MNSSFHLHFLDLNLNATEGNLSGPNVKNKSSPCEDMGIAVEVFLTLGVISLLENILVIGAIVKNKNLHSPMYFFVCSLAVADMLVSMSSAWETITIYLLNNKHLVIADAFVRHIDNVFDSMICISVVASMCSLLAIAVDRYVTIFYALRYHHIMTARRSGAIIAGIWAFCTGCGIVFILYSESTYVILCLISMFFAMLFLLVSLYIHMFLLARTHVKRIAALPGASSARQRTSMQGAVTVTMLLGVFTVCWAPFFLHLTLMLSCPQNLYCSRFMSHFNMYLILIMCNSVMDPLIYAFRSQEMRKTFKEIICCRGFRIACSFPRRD
T3 sequence (P41143 whole entry): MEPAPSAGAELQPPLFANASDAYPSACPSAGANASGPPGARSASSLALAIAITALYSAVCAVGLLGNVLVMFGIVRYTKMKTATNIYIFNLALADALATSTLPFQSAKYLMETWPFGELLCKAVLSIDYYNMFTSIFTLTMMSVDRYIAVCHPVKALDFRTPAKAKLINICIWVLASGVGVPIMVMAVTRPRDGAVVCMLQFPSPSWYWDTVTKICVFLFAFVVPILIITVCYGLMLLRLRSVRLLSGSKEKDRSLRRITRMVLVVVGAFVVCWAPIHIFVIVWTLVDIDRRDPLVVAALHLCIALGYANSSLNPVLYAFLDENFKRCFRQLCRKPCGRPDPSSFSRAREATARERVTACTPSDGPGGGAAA
T8 sequence (Q99705 whole entry): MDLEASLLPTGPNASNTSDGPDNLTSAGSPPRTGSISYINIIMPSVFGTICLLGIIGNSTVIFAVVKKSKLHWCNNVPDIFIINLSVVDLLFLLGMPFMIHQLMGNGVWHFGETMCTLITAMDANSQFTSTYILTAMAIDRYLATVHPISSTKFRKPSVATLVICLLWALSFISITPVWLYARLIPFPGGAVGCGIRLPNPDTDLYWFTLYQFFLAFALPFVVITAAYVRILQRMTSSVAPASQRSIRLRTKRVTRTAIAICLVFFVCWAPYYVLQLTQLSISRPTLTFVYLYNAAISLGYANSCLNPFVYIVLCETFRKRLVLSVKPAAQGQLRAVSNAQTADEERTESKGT
T1 sequence (P41968 whole entry): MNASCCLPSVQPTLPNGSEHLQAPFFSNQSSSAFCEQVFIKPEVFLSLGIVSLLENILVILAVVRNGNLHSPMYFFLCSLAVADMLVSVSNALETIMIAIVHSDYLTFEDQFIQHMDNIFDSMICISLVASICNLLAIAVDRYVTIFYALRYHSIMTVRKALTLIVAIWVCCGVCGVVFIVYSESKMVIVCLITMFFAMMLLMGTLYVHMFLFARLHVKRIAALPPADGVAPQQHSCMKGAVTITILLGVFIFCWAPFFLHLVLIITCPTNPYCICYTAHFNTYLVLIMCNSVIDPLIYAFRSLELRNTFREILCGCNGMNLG
T11 sequence (P41145 whole entry): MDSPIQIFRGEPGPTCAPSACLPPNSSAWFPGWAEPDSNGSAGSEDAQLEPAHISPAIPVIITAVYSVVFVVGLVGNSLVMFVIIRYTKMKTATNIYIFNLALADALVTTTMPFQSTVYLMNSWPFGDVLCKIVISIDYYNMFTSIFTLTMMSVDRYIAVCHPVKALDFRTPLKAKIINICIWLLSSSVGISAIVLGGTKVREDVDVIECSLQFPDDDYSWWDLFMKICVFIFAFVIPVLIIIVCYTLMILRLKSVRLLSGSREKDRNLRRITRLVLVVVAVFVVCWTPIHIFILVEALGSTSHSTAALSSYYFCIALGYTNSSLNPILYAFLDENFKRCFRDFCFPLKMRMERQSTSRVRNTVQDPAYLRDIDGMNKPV
T7 sequence (P35372 whole entry): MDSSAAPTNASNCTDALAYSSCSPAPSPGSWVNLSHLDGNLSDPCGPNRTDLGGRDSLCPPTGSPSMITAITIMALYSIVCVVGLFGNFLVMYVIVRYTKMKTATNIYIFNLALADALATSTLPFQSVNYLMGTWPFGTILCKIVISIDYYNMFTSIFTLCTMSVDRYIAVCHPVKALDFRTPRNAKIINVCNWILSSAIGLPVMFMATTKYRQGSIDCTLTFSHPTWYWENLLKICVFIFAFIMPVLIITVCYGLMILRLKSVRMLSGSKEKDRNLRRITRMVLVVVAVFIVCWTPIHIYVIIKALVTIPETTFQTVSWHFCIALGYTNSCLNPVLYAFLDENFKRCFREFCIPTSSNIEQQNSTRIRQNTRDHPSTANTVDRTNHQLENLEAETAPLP
T5 sequence (P41146 whole entry): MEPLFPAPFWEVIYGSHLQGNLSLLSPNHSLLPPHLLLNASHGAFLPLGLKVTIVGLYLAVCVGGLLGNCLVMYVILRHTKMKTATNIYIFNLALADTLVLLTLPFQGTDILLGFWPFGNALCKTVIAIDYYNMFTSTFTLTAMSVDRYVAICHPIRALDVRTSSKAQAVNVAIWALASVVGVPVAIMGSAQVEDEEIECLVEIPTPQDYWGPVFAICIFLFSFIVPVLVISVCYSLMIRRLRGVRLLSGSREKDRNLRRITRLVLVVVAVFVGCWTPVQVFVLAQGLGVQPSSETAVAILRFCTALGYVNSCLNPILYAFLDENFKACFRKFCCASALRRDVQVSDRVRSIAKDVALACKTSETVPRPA

Compound: CSC1OC(COCc2cccc(N)c2)C(O)C(OCc2ccccc2)C1NC(=O)Cc1ccccc1 (stereo not shown) [compound 325]
- A3: inhibition of radioligand binding, human melanocortin (MC3) [1]: − (“−” indicates less than 50% inhibition at 10 μM)
- A9: inhibition of radioligand binding, human neuropeptide Y (NPY-Y1) [2]: − (“−” indicates less than 50% inhibition at 10 μM)
- A1: inhibition of radioligand binding, human δ-opioid (DOP) [3]: − (“−” indicates less than 50% inhibition at 10 μM)
- A8: inhibition of radioligand binding, human neurokinin (NK1) [4]: + (“+” indicates greater than 50% inhibition at 10 μM)
- A10: inhibition of radioligand binding, human opioid (ORL1) [5]: − (“−” indicates less than 50% inhibition at 10 μM)
- A5: inhibition of radioligand binding, human melanocortin (MC5) ([6]; 10 µM): + (“+” indicates greater than 50% inhibition at 10 μM)
- A7: inhibition of radioligand binding, human μ-opioid (MOP) [7]: − (“−” indicates less than 50% inhibition at 10 μM)
- A6: inhibition of radioligand binding, human melanin-concentrating hormone (MCH1) ([8]; [125I]-S36057): − (“−” indicates less than 50% inhibition at 10 μM)
- A11: inhibition of radioligand binding, mouse urotensin (mUR2) [9]: − (“−” indicates less than 50% inhibition at 10 μM)
- A4: inhibition of radioligand binding, human melanocortin (MC4) [10]: − (“−” indicates less than 50% inhibition at 10 μM)
- A2: inhibition of radioligand binding, human κ-opioid (KOP) [11]: − (“−” indicates less than 50% inhibition at 10 μM)

Compound: COCC1OC(OCc2ccccc2)C(NC(=O)CCCN)C(OCc2ccc(-c3ccccc3)cc2)C1O (stereo not shown) [compound 186]
- A3 radioligand binding, percentage inhibition [1]: − (“−” indicates less than 50% inhibition at 10 μM)
- A9 radioligand binding, percentage inhibition [2]: − (“−” indicates less than 50% inhibition at 10 μM)
- A1 radioligand binding, percentage inhibition [3]: − (“−” indicates less than 50% inhibition at 10 μM)
- A8 radioligand binding, percentage inhibition [4]: + (“+” indicates greater than 50% inhibition at 10 μM)
- A10 radioligand binding, percentage inhibition [5]: − (“−” indicates less than 50% inhibition at 10 μM)
- A5 radioligand binding, percentage inhibition [6]: + (“+” indicates greater than 50% inhibition at 10 μM)
- A7 radioligand binding, percentage inhibition [7]: − (“−” indicates less than 50% inhibition at 10 μM)
- A6 radioligand binding, percentage inhibition ([8]; [125I]-S36057): − (“−” indicates less than 50% inhibition at 10 μM)
- A11 radioligand binding, percentage inhibition [9]: − (“−” indicates less than 50% inhibition at 10 μM)
- A4 radioligand binding, percentage inhibition [10]: − (“−” indicates less than 50% inhibition at 10 μM)
- A2 radioligand binding, percentage inhibition [11]: − (“−” indicates less than 50% inhibition at 10 μM)

Compound: NCCCC(=O)NC1C(OCc2ccc3ccccc3c2)OC(COCc2ccccc2)C(O)C1OCc1ccc2ccccc2c1 (stereo not shown) [compound 394]
- A3: inhibition of radioligand binding ([1]; human MC3 membranes, 10 µM): + (“+” indicates greater than 50% inhibition at 10 μM)
- A9: inhibition of radioligand binding ([2]; human NPY-Y1 membranes): − (“−” indicates less than 50% inhibition at 10 μM)
- A1: inhibition of radioligand binding ([3]; human DOP membranes): − (“−” indicates less than 50% inhibition at 10 μM)
- A8: inhibition of radioligand binding ([4]; human NK1 membranes): + (“+” indicates greater than 50% inhibition at 10 μM)
- A10: inhibition of radioligand binding ([5]; human ORL1 membranes, 10 µM): − (“−” indicates less than 50% inhibition at 10 μM)
- A5: inhibition of radioligand binding ([6]; human MC5 membranes): + (“+” indicates greater than 50% inhibition at 10 μM)
- A7: inhibition of radioligand binding ([7]; human MOP membranes): − (“−” indicates less than 50% inhibition at 10 μM)
- A6: inhibition of radioligand binding ([8]; [125I]-S36057, human MCH1 membranes): − (“−” indicates less than 50% inhibition at 10 μM)
- A11: inhibition of radioligand binding ([9]; mouse mUR2 membranes): − (“−” indicates less than 50% inhibition at 10 μM)
- A4: inhibition of radioligand binding ([10]; human MC4 membranes, 10 µM): + (“+” indicates greater than 50% inhibition at 10 μM)
- A2: inhibition of radioligand binding ([11]; human KOP membranes): − (“−” indicates less than 50% inhibition at 10 μM)

Compound: CO[C@H]1[C@H](O)[C@@H](COCc2ccccc2)OC(OCc2ccc(Cl)cc2)[C@@H]1NC(=O)CCCNC(=N)N (stereo partly shown) [compound 104]
- A3 radioligand binding, percentage inhibition [1]: − (“−” indicates less than 50% inhibition at 10 μM)
- A9 radioligand binding, percentage inhibition [2]: − (“−” indicates less than 50% inhibition at 10 μM)
- A1 radioligand binding, percentage inhibition [3]: − (“−” indicates less than 50% inhibition at 10 μM)
- A8 radioligand binding, percentage inhibition [4]: + (“+” indicates greater than 50% inhibition at 10 μM)
- A10 radioligand binding, percentage inhibition [5]: − (“−” indicates less than 50% inhibition at 10 μM)
- A5 radioligand binding, percentage inhibition [6]: + (“+” indicates greater than 50% inhibition at 10 μM)
- A7 radioligand binding, percentage inhibition [7]: + (“+” indicates greater than 50% inhibition at 10 μM)
- A6 radioligand binding, percentage inhibition ([8]; [125I]-S36057): − (“−” indicates less than 50% inhibition at 10 μM)
- A11 radioligand binding, percentage inhibition [9]: − (“−” indicates less than 50% inhibition at 10 μM)
- A4 radioligand binding, percentage inhibition [10]: + (“+” indicates greater than 50% inhibition at 10 μM)
- A2 radioligand binding, percentage inhibition [11]: − (“−” indicates less than 50% inhibition at 10 μM)

Compound: CSC1O[C@H](COCc2ccc(Cl)cc2)[C@@H](O)[C@@H](OCc2ccc(Cl)cc2)[C@H]1NC(=O)CCCNC(=N)N (stereo partly shown) [compound 274]
- A3: inhibition of radioligand binding ([1]; FlashPlate): − (“−” indicates less than 50% inhibition at 10 μM)
- A9: inhibition of radioligand binding ([2]; FlashPlate): − (“−” indicates less than 50% inhibition at 10 μM)
- A1: inhibition of radioligand binding ([3]; FlashPlate): − (“−” indicates less than 50% inhibition at 10 μM)
- A8: inhibition of radioligand binding ([4]; filtration): + (“+” indicates greater than 50% inhibition at 10 μM)
- A10: inhibition of radioligand binding ([5]; FlashPlate): − (“−” indicates less than 50% inhibition at 10 μM)
- A5: inhibition of radioligand binding ([6]; FlashPlate): − (“−” indicates less than 50% inhibition at 10 μM)
- A7: inhibition of radioligand binding ([7]; FlashPlate): − (“−” indicates less than 50% inhibition at 10 μM)
- A6: inhibition of radioligand binding ([8]; [125I]-S36057, FlashPlate): − (“−” indicates less than 50% inhibition at 10 μM)
- A11: inhibition of radioligand binding ([9]; FlashPlate): − (“−” indicates less than 50% inhibition at 10 μM)
- A4: inhibition of radioligand binding ([10]; FlashPlate): − (“−” indicates less than 50% inhibition at 10 μM)
- A2: inhibition of radioligand binding ([11]; filtration): − (“−” indicates less than 50% inhibition at 10 μM)
